The test system of the series is small-cell lung cancer. It counts as in vivo, human. The source says: This is a person with a diagnosis of small-cell lung cancer, involving their left lung, mediastinal lymph nodes, and MRI evidence of a metastasis to the left parietal brain lobe. Prior chemotherapy includes carboplatin, etoposide, and topotecan, but with no response noted. Radiation therapy also fails to control their disease.

Where two headings read alike, the source gives them in different places.

In the case of IMMU-132, the “shrinkage of target left lung mass” value (18 mg/kg once every three weeks, after fifth infusion) was 13%. Besides, under “after another 3 months”, the “reduction of brain metastasis” value was 21% and the “reduction of left lung mass” value was found to be 25%. In addition, where the note is “after fifth infusion”, the “reduction of brain metastasis” value amounted to 10%. Further, the “adverse events after second dose” value (in vivo) is “hypotension and a Grade 2 neutropenia”.

These data come from patent publication US20240352145A1, “EFFICACY OF ANTI-TROP-2-SN-38 ANTIBODY DRUG CONJUGATES FOR THERAPY OF TUMORS RELAPSED/REFRACTORY TO CHECKPOINT INHIBITORS” (Immunomedics, Inc., priority 2016, published 2024).
